In patent US10137174B2, “Methods and materials for treating cancers that express reduced levels of wild-type p53 polypeptides” (Mayo Foundation for Medical Education and Research, priority 2009, dated 2018):

Columns and labels:
USP10 polypeptide = target: T1, USP10 polypeptide (Homo sapiens, UniProt Q14694); assay: Ub-AMC deubiquitination assay with USP10 polypeptide; assay type: biochemical; conditions: USP10 4 μg/mL, Ub-AMC 300 nmol/L, vs DMSO, p<0.01
T1 construct: His; made in house; host or cells: E. coli BL21 (pET-28a vector)
Protocol: FIG. 17A is a concentration curve graph plotting the level of deubiquitination of Ub-AMC observed following incubation with the indicated amounts of USP10 polypeptide (μg). FIG. 17B is a graph plotting the level of deubiquitination of Ub-AMC in the presence (right) or absence (left) of 4 μg/mL of USP10 polypeptides and the indicated compound.
Briefly, the amount of Ub-AMC deubiquitination in vitro increased as the concentration of USP10 polypeptides increased (FIG. 17A).
N-ethylmaleimide (1 mM), Z-phe-ala fluoromethyl ketone ([…] dihydrochloride (10 μg/mL), E-64 (10 μM), chymostatia ([…] fluoride (40 μM), E-64d (0.5 μM), and cystatin (36 μg/mL) were tested for the ability to inhibit USP10 polypeptide activity using USP10 polypeptide (4 μg/mL) and Ub-AMC (300 nmol/L). Briefly, both enzyme (USP10 polypeptide) and substrate (Ub-AMC) were freshly prepared in USP10 reaction buffer (50 mmol/L Tris-HCl (pH 7.6), 0.5 mmol/L EDTA, 5 mmol/L DTT, 0.01% Triton X-100, and 0.05 mg/mL serum albumin) for each run. Each well (except substrate control wells) in a typical assay contained 4 μg/mL of USP10, the compound, or 2% DMSO. The wells were incubated for 30 minutes to attain equilibrium, and the enzymatic reaction was then initiated by adding the substrate (300 nmol/L of Ub-AMC). […]

[1] = system: USP10 phosphorylation (PIKKs/ATM); assay: USP10 phosphorylation at SQ/TQ motifs after DNA damage (FLAG-USP10 IP, pSQ/TQ blot) in HCT116 cells; assay type: cell-based; conditions: Ku55933, 2 hours pretreatment; 10 Gy radiation; HCT116 cells with FLAG-USP10
Protocol: Forty-eight hours later, the cells were left untreated or treated with 10 Gy radiation, 40 J/m^2 UV, or 20 mM etoposide. After an additional 1 hour, the cells were harvested. Cell lysates were subjected to immunoprecipitation with anti-FLAG antibody and immunobloted with phospho-SQ/TQ (pSQ/TQ) antibody. […] After 2 hours of incubation, cells were left untreated or treated with 10 Gy radiation. The phosphorylation of USP10 was examined as in (FIG. 6C). […] Cells were left untreated or treated with 10 Gy radiation. USP10 phosphorylation was examined by pSQ/TQ antibody.
Cells were lysed with NETN buffer (20 mM Tris-HCl, pH 8.0, 100 mM NaCl, 1 mM EDTA, 0.5% Nonidet P-40) containing 50 mM β-glycerophosphate, 10 mM NaF, and 1 mg/mL each of pepstatin A, and aprotinin. Whole cell lysates obtained by centrifugation were incubated with 2 μg of antibody and protein A or protein G Sepharose beads (Amersham Biosciences) for 2 hours at 4° C. The immunocomplexes were then washed with NETN buffer three times and separated by SDS-PAGE. Immunoblotting was performed following standard procedures.

T1 sequence (Q14694 whole entry): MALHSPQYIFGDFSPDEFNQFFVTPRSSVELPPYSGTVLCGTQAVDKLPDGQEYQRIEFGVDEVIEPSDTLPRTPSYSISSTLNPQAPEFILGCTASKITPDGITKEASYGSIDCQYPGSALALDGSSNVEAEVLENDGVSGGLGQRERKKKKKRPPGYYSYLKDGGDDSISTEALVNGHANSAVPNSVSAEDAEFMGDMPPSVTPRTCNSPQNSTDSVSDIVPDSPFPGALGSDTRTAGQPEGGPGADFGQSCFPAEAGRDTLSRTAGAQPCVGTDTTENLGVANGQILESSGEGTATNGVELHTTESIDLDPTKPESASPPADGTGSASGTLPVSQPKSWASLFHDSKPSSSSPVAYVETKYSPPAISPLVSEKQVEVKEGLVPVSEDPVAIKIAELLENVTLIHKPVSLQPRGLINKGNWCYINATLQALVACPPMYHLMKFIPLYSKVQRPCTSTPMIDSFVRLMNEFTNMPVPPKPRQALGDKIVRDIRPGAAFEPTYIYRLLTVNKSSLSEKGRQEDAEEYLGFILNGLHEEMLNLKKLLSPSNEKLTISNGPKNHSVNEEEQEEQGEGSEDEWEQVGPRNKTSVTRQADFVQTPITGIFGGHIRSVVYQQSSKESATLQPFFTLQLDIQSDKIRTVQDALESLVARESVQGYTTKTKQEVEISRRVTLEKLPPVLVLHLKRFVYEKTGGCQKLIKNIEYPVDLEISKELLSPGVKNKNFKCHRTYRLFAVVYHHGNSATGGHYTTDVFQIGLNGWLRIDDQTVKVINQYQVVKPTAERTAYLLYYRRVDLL

CCN1C(=O)C=CC1=O [N-ethylmaleimide]
deubiquitinating activity of USP10 polypeptides (USP10 polypeptide; compound 1 mM): significantly inhibited

O=c1cc(-c2cccc3c2Sc2ccccc2S3)oc(N2CCOCC2)c1 [KU55933]
USP10 phosphorylation after IR [1]: inhibited

C[C@H](NC(=O)[C@H](Cc1ccccc1)NC(=O)OCc1ccccc1)C(=O)CF [Z-phe-ala fluoromethyl ketone]
deubiquitinating activity of USP10 polypeptides (USP10 polypeptide; compound 80 μM): significantly inhibited
